According to ChEMBL document CHEMBL1201862, “PubChem BioAssay data set” (2004):
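1) Cells in 96-well plates. 2) Compound, 48 h, 5 concentrations. 3) Linear interpolation between surrounding doses. 4) Unreached endpoint = highest concentration. The concentration for 50% growth inhibition is given as GI50.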 Activity calls are given as the source filed them. Cut-off read from the data, not from the text of the source: active = GI50 up to about 1.1 µM and inactive = higher. Where a SMILES comes first, the peptide text is derived from it. [ ]: non-standard residue; d: D form. The star is where a group is joined. mTyr = N[CH](Cc1cccc(O)c1)C(=O)O; Cbz = O=C(OCc1ccccc1)*; OBn = c1ccc(CO*)cc1

What was measured:
Test in all cases: DTP human tumour cell line panel, 48 h
PC-3 = tested on: PC-3
UACC-257 = tested on: UACC-257
KM12 = tested on: KM12
NCI-H226 = tested on: NCI-H226
SK-MEL-2 = tested on: SK-MEL-2
SF-268 = tested on: SF-268
SK-OV-3 = tested on: SK-OV-3
EKVX = tested on: EKVX
A549 = tested on: A549
SR = tested on: SR
OVCAR-3 = tested on: OVCAR-3
ACHN = tested on: ACHN
COLO 205 = tested on: COLO 205
A498 = tested on: A498
T47D = tested on: T47D
SN12C = tested on: SN12C
HCT-15 = tested on: HCT-15
MOLT-4 = tested on: MOLT-4
SNB-75 = tested on: SNB-75
MDA-N = tested on: MDA-N

Row | Structure (SMILES) | GI50 (PC-3) | GI50 (UACC-257) | GI50 (KM12) | GI50 (NCI-H226) | GI50 (SK-MEL-2) | GI50 (SF-268) | GI50 (SK-OV-3) | GI50 (EKVX) | GI50 (A549) | GI50 (SR) | GI50 (OVCAR-3) | GI50 (ACHN) | GI50 (COLO 205) | GI50 (A498) | GI50 (T47D) | GI50 (SN12C) | GI50 (HCT-15) [µM] | GI50 (MOLT-4) | GI50 (SNB-75) | GI50 (MDA-N)
1 | C=C1CC(COc2ccc3c(C)c(Cl)c(=O)oc3c2)(c2ccccc2)OC1=O (stereo not drawn) | 1.9 µM (inactive) | 1.61 µM (inactive) | 2.48 µM (inactive) | 2.34 µM (inactive) | 1.75 µM (inactive) | 4.46 µM (inactive) | 5.92 µM (inactive) | 10.5 µM (inactive) | 11.9 µM (inactive) | 1.3 µM (inactive) | 2.14 µM (inactive) | 2.86 µM (inactive) | 0.675 µM (active) | 11.8 µM (inactive) | 2.04 µM (inactive) | 6.1 µM (inactive) | 2.26 | 0.805 µM (active) | 3.47 µM (inactive) | 2.07 µM (inactive)
2 | CC(C)CCC/C(CBr)=C(\Cl)CCl | 4.76 µM (inactive) | 2.13 µM (inactive) | 2.15 µM (inactive) | 7.89 µM (inactive) | 1.46 µM (inactive) | 3.55 µM (inactive) | 7.82 µM (inactive) | 16.6 µM (inactive) | 15.7 µM (inactive) | 0.746 µM (active) | 2.53 µM (inactive) | 11.2 µM (inactive) | 1.83 µM (inactive) | 20.7 µM (inactive) | 1.17 µM (inactive) | 2.82 µM (inactive) | 2.8 | 0.653 µM (active) | 1.95 µM (inactive) | 1.83 µM (inactive)
3 | Cc1ccccc1Nc1nc2c(s1)C(=O)c1ccccc1C2=O | 2.26 µM (inactive) | 5.5 µM (inactive) | 9.38 µM (inactive) | 14.4 µM (inactive) | 16.7 µM (inactive) | 4.33 µM (inactive) | 21.8 µM (inactive) | 13.3 µM (inactive) | 10.2 µM (inactive) | 3.27 µM (inactive) | 2.24 µM (inactive) | 4.95 µM (inactive) | 16.8 µM (inactive) | 22.4 µM (inactive) | 4.53 µM (inactive) | 3.3 µM (inactive) | 3.78 | 2.43 µM (inactive) | 15.3 µM (inactive) | 1.95 µM (inactive)
4 | CCCCCCCCCCCCC(O)C1CCC(C(O)CCCCCCC(O)CCCCCCCC2=CC(C)OC2=O)O1 (stereo not drawn) | 31 µM (inactive) | 2.17 µM (inactive) | 32.4 µM (inactive) | 48.2 µM (inactive) | 24.6 µM (inactive) | 6.53 µM (inactive) |  | 1.71 µM (inactive) | 4.23 µM (inactive) | 0.407 µM (active) | 20.8 µM (inactive) | 2.48 µM (inactive) | 19.7 µM (inactive) | 32.8 µM (inactive) | 2.8 µM (inactive) | 25.8 µM (inactive) | 31.3 | 7.29 µM (inactive) | 5.58 µM (inactive) | 17.7 µM (inactive)
5 | CC(C)=CCNc1ncnc2c1ncn2CCC#N | > 100 µM (inactive) |  | > 100 µM (inactive) | > 100 µM (inactive) |  | > 100 µM (inactive) | > 100 µM (inactive) |  | > 100 µM (inactive) | > 100 µM (inactive) | > 100 µM (inactive) | > 100 µM (inactive) | > 100 µM (inactive) | > 100 µM (inactive) | > 100 µM (inactive) | > 100 µM (inactive) | > 100 | > 100 µM (inactive) | 19.8 µM (inactive) | > 100 µM (inactive)
6 | COc1ccc(-c2c(N)n(-c3cccc(C(=O)O)c3)c(=O)c3cc([N+](=O)[O-])ccc23)cc1 | > 100 µM (inactive) | > 100 µM (inactive) | > 100 µM (inactive) | > 100 µM (inactive) | > 100 µM (inactive) | > 100 µM (inactive) | > 100 µM (inactive) | > 100 µM (inactive) | > 100 µM (inactive) | > 100 µM (inactive) | > 100 µM (inactive) | > 100 µM (inactive) |  | > 100 µM (inactive) | > 100 µM (inactive) |  | > 100 | > 100 µM (inactive) | > 100 µM (inactive) | > 100 µM (inactive)
7 | Nc1nc(S)nc2snnc12 | > 100 µM (inactive) | > 100 µM (inactive) | > 100 µM (inactive) | > 100 µM (inactive) | > 100 µM (inactive) | > 100 µM (inactive) | > 100 µM (inactive) |  | > 100 µM (inactive) | > 100 µM (inactive) | > 100 µM (inactive) | > 100 µM (inactive) | > 100 µM (inactive) | > 100 µM (inactive) | > 100 µM (inactive) | > 100 µM (inactive) | > 100 | > 100 µM (inactive) | > 100 µM (inactive) | > 100 µM (inactive)
8 | O=C1NCC2(CCNCC2)N1c1ccccc1 | > 100 µM (inactive) | > 100 µM (inactive) | > 100 µM (inactive) | > 100 µM (inactive) | > 100 µM (inactive) | > 100 µM (inactive) |  | > 100 µM (inactive) | > 100 µM (inactive) | > 100 µM (inactive) | > 100 µM (inactive) | > 100 µM (inactive) | > 100 µM (inactive) | > 100 µM (inactive) | > 100 µM (inactive) | > 100 µM (inactive) | > 100 | > 100 µM (inactive) | > 100 µM (inactive) | > 100 µM (inactive)
9 | COc1ccc(C(C)NNC(=O)c2cc[n+]([BH2-]C#N)cc2)c(OC)c1 (stereo not drawn) | > 100 µM (inactive) | > 100 µM (inactive) | > 100 µM (inactive) | > 100 µM (inactive) | > 100 µM (inactive) | > 100 µM (inactive) |  | > 100 µM (inactive) | > 100 µM (inactive) | > 100 µM (inactive) | > 100 µM (inactive) | > 100 µM (inactive) | > 100 µM (inactive) | > 100 µM (inactive) | > 100 µM (inactive) | > 100 µM (inactive) | > 100 | > 100 µM (inactive) | > 100 µM (inactive) | > 100 µM (inactive)
10 | COc1cc(/C=C2\C(=O)N(c3cc(Cl)ccc3Cl)C(c3ccccc3)S2(=O)=O)cc(OC)c1OC (stereo not drawn) | 55.8 µM (inactive) | > 100 µM (inactive) | 36.6 µM (inactive) | 25.4 µM (inactive) | > 100 µM (inactive) |  | > 100 µM (inactive) | 29.3 µM (inactive) | > 100 µM (inactive) | 31.6 µM (inactive) | 34.8 µM (inactive) | > 100 µM (inactive) | > 100 µM (inactive) | > 100 µM (inactive) | 26.1 µM (inactive) | 62.1 µM (inactive) | 39.4 | 25.1 µM (inactive) | 61.1 µM (inactive) | 22.2 µM (inactive)
11 | CN(C)/C=N/c1ccc2c3c(cccc13)-c1ccccc1-2 | 12.8 µM (inactive) | 17.3 µM (inactive) |  | 10.6 µM (inactive) | 17.1 µM (inactive) | 12.5 µM (inactive) | 13.7 µM (inactive) | 10.5 µM (inactive) | 11.5 µM (inactive) | 10.3 µM (inactive) | 14.9 µM (inactive) | 16 µM (inactive) | 16.6 µM (inactive) | 10.1 µM (inactive) | 15 µM (inactive) | 12.6 µM (inactive) | 11.8 | 10.1 µM (inactive) | 13 µM (inactive) | 14.5 µM (inactive)
12 | COC(=O)C(Cc1cccc(O)c1)NC(=O)C(CC(=O)OCc1ccccc1)NC(=O)OCc1ccccc1 (stereo not drawn) (Cbz-Asp(OBn)-[mTyr]-OMe; configuration not given here) | > 100 µM (inactive) | > 100 µM (inactive) | > 100 µM (inactive) | > 100 µM (inactive) | > 100 µM (inactive) |  |  | > 100 µM (inactive) | > 100 µM (inactive) | 46.1 µM (inactive) |  | 63.5 µM (inactive) | > 100 µM (inactive) | > 100 µM (inactive) | 15.9 µM (inactive) | > 100 µM (inactive) | > 100 | 32.1 µM (inactive) | > 100 µM (inactive) | > 100 µM (inactive)
13 | [N-]=[N+]=NC1(N=[N+]=[N-])C(=O)NN=C(c2ccccc2)C1=O (stereo not drawn) | > 100 µM (inactive) | 97.5 µM (inactive) | > 100 µM (inactive) | > 100 µM (inactive) |  | 13 µM (inactive) | > 100 µM (inactive) | > 100 µM (inactive) | > 100 µM (inactive) | 32.7 µM (inactive) | 68.4 µM (inactive) | > 100 µM (inactive) | > 100 µM (inactive) | > 100 µM (inactive) | 31.1 µM (inactive) | > 100 µM (inactive) | > 100 | 28.8 µM (inactive) | > 100 µM (inactive) | 20.7 µM (inactive)
14 | Cc1cccc(C)c1NC(=O)C(=O)CC(=O)/C=C/c1ccccc1 | > 100 µM (inactive) | > 100 µM (inactive) | > 100 µM (inactive) | > 100 µM (inactive) | > 100 µM (inactive) | > 100 µM (inactive) | > 100 µM (inactive) | > 100 µM (inactive) | > 100 µM (inactive) | > 10 µM (inactive) | > 100 µM (inactive) | > 100 µM (inactive) |  | > 100 µM (inactive) | > 100 µM (inactive) | > 100 µM (inactive) | > 100 | > 100 µM (inactive) | > 100 µM (inactive) | > 100 µM (inactive)
15 | FC1(F)[Se]C2C3CCC(C3)C2C1(F)F (stereo not drawn) | > 100 µM (inactive) |  | > 100 µM (inactive) | > 100 µM (inactive) | > 100 µM (inactive) | > 100 µM (inactive) | > 100 µM (inactive) | > 100 µM (inactive) | > 100 µM (inactive) | > 100 µM (inactive) | > 100 µM (inactive) | > 100 µM (inactive) | > 100 µM (inactive) | > 100 µM (inactive) | > 100 µM (inactive) | > 100 µM (inactive) | > 100 | > 100 µM (inactive) | 97.3 µM (inactive) | > 100 µM (inactive)
